Like-named read-outs stand apart in the source and are kept apart here.
Columns and labels:
solid tumors = experiment: Phase 1 study, 144-hour (6 day) continuous infusion; format: in vivo, human; details: monotherapy and combination therapy
Method: A phase 1 clinical trial evaluating a 144-hour (6 day) continuous infusion of coenzyme Q10 for treatment of solid tumors is earned out. Coenzyme Q10 is administered as a monotherapy (Arm 1) or in combination with chemotherapy (Arm 2). […] The study is an open label, non-randomized dose-escalation study. The estimated enrollment is 45 patients for monotherapy (Arm 1), and up to 120 patients for combination therapy (Arm 2).
A dosing schedule of two 72-hour doses is used. For the first 72-hour dose, a loading dose over 1 hour is followed by infusion of the remainder of the dose over 71 hours at a lower rate. […]
A phase 1 clinical trial for treatment of solid tumors using coenzyme Q10 monotherapy and coenzyme Q10 in combination with chemotherapy is carried out. […] Dose limiting toxicities are assessed during Cycle 1.
Assessments of the antitumor activity of coenzyme Q10 are performed at the end of Cycle 2 and every 2 cycles thereafter using standard techniques such as computerized tomography (CT) or magnetic resonance imaging (MRI) for patients with measurable disease. Response is evaluated using Response Evaluation Criteria in Solid Tumors (RECIST) v1.1. […] Once a dose level of coenzyme Q10 monotherapy is evaluated and the CRC determines it safe to escalate to the next dose level, Cohort 1 of Treatment Arm 2 of coenzyme Q10 in combination with chemotherapy opens to accrual. […]

[1] = First-in-human Phase 1 study (CTL0510), 4-hour IV infusion 3 times weekly: safety
Method: (§1) The first-in-human Phase 1 study with coenzyme Q10 nanosuspension (40 mg/ml) was conducted in 50 patients with advanced solid tumors. The objectives were to assess the safety, maximum tolerated dose, PK and PD of coenzyme Q10, specifically a 4% coenzyme Q10 nanosuspension formulation (as described in WO 2011/112900, the entire contents of which are expressly incorporated herein by reference), administered as a 4-hour IV infusion 3 times weekly in 28-day cycles. Nine dose levels were explored ranting from 5.62 to 139 mg/kg. Plasma concentration profiles and PK parameters were determined from blood samples collected pre-dose and at intervals to 48 hours post-dose.

[2] = in vivo
Method: as §1, with “Nine dose levels were explored ranting from 5.62 to 139 mg/kg.” left out

[3] = Phase 1a/b study, 96-hour continuous IV infusion: pharmacokinetics; format: in vivo, human
Method: Blood samples for pharmacokinetic and pharmacodynamic analyses are collected during each cycle of monotherapy and combination therapy. Urine samples for determination of coenzyme Q10 renal clearance are collected only during Cycle 1 of monotherapy and combination therapy. A PET scan is performed within 2 weeks prior to starting treatment and after 2 weeks of coenzyme Q10 treatment, and 8 weeks of treatment on Arm 1 or 10 weeks of treatment on Arm 2. Core biopsies (2-3) are performed at the time of baseline and Week 2 PET scan for patients who opt-in to participate in these exploratory studies.

Substance: coenzyme Q10
- clinical and/or radiographic responses (solid tumors; at least some patients): Clinical and/or radiographic responses are seen
- safety and tolerability (solid tumors; six day continuous infusion): safe and well tolerated
- serious adverse events (bleeding) resulting in the patient's death due to hemothorax ([1]; 104.3 mg/kg dose level): One
- AST increased, laboratory AE ([1]; in vivo): 8%
- CTCAE grade of the majority of adverse events ([1]; in vivo): grade 1 or 2
- PTT prolonged, laboratory AE ([1]; in vivo): 80%
- SAEs reported as possibly related to coenzyme Q10 ([1]; in vivo): Two
- alkaline phosphatase increased, laboratory AE ([1]; in vivo): 2%
- arthritis, AE related to coenzyme Q10 ([1]; in vivo): 4%
- chills, AE related to coenzyme Q10 ([1]; in vivo): 6%
- dose limiting toxicities (DLTs) ([1]; in vivo): no dose limiting toxicities (DLTs) were identified
- fatigue, AE related to coenzyme Q10 ([1]; in vivo): 24%
- fever, AE related to coenzyme Q10 ([1]; in vivo): 8%
- headache, AE related to coenzyme Q10 ([1]; in vivo): 10%
- increased INR considered related to coenzyme Q10 ([1]; in vivo): 68%
- nausea, AE related to coenzyme Q10 ([1]; in vivo): 8%
- patients who died due to disease progression or intercurrent illness during the study ([1]; in vivo): Twenty
- patients who discontinued treatment due to AEs reported as unrelated to treatment ([1]; in vivo): Four
- patients who experienced abnormal INR values ([1]; in vivo): 38 patients
- patients with clinically significant increased INR ([1]; in vivo): 14 patients
- platelet count decreased, laboratory AE ([1]; in vivo): 14%
- vital signs or physical examination findings ([1]; in vivo): No clinically significant changes
- Tmax and Cmax ([2]; human): generally associated with the end of the infusion
- AUC0-168 (estimated weekly) ([2]; human, 176 mg/kg): 68,787 μg*hr/mL
- Cmax (estimated weekly) ([2]; human, 176 mg/kg): 1,558 μg/mL
- AUC0-168 (estimated weekly) ([2]; human, 235 mg/kg): 74,640 μg*hr/mL
- Cmax (estimated weekly) ([2]; human, 235 mg/kg): 1,592 μg/mL
- AUC0-168 (estimated weekly) ([2]; human, 313 mg/kg): 125,953 μg*hr/mL
- Cmax (estimated weekly) ([2]; human, 313 mg/kg): 2,198 μg/mL
- t1/2 ([2]; human, iv): 2.18 to 18.0 h
- accumulation with increasing duration of dosing [2]: no apparent accumulation
- dose-proportionality ([2]; 22.5 mg/kg): dose-proportionality appeared linear
- increase in the intratumor concentration of Coenzyme Q11 ([3]; Patient 1, gastric adenocarcinoma, dose level 1 (66 mg/kg week)): 15 fold
- pharmacokinetics ([3]; initial tested doses): linear distribution

Reference: patent publication US12653776B2, “Methods of treatment of cancer by continuous infusion of coenzyme Q10” (priority 2013, dated 2026)
